Results: patent publication US20230120895A1, “PESTICIDALLY ACTIVE HETEROCYCLIC DERIVATIVES WITH SULFUR CONTAINING SUBSTITUENTS” (SYNGENTA CROP PROTECTION AG, priority 2019, published 2023)

Columns and labels:
Format in all cases: in vivo
[1] = system: Diabrotica balteata; test: Activity against Diabrotica balteata (corn root worm); details: 96 h, application rate 200 ppm, sprayed maize sprouts, L2 larvae, 4 days after infestation, read-out: effect in at least one of the two categories (mortality or growth inhibition)
Procedure: Maize sprouts placed onto an agar layer in 24-well microtiter plates were treated with aqueous test solutions prepared from 10′000 ppm DMSO stock solutions by spraying. After drying, the plates were infested with L2 larvae (6 to 10 per well). The samples were assessed for mortality and growth inhibition in comparison to untreated samples 4 days after infestation.

[2] = system: Chilo suppressalis; test: Activity against Chilo suppressalis (striped rice stemborer); details: 144 h, application rate 200 ppm, artificial diet, L2 larvae, 6 days after infestation, read-out: control (mortality, anti-feeding effect or growth inhibition)
Procedure: 24-well microtiter plates with artificial diet were treated with aqueous test solutions prepared from 10′000 ppm DMSO stock solutions by pipetting. After drying, the plates were infested with L2 larvae (6-8 per well). The samples were assessed for mortality, anti-feeding effect, and growth inhibition in comparison to untreated samples 6 days after infestation. Control of Chilo suppressalis by a test sample is given when at least one of the categories mortality, anti-feedant effect, and growth inhibition is higher than the untreated sample.

[3] = system: Myzus persicae; test: Activity against Myzus persicae (green peach aphid), systemic activity; details: 144 h, test rate 24 ppm, roots of pea seedlings in test solution, 6 days
Procedure: Roots of pea seedlings infested with an aphid population of mixed ages were placed directly into aqueous test solutions prepared from 10′000 DMSO stock solutions. The samples were assessed for mortality 6 days after placing seedlings into test solutions.

[4] = system: Spodoptera littoralis; test: Activity against Spodoptera littoralis (Egyptian cotton leaf worm); details: foliar, 72 h, application rate 200 ppm, sprayed cotton leaf discs, L1 larvae, 3 days after infestation, read-out: control (mortality, anti-feeding effect or growth inhibition)
Procedure: Cotton leaf discs were placed onto agar in 24-well microtiter plates and sprayed with aqueous test solutions prepared from 10′000 ppm DMSO stock solutions. After drying the leaf discs were infested with five L1 larvae. The samples were assessed for mortality, anti-feeding effect, and growth inhibition in comparison to untreated samples 3 days after infestation. Control of Spodoptera littoralis by a test sample is given when at least one of the categories mortality, anti-feedant effect, and growth inhibition is higher than the untreated sample.

[5] = system: Myzus persicae; test: Activity against Myzus persicae (green peach aphid), feeding/contact activity; details: foliar, 144 h, application rate 200 ppm, sprayed sunflower leaf discs, mixed ages, 6 days after infestation
Procedure: Sunflower leaf discs were placed onto agar in a 24-well microtiter plate and sprayed with aqueous test solutions prepared from 10′000 ppm DMSO stock solutions. After drying, the leaf discs were infested with an aphid population of mixed ages. The samples were assessed for mortality 6 days after infestation.

[6] = system: Plutella xylostella; test: Activity against Plutella xylostella (diamond back moth); details: 192 h, application rate 200 ppm, artificial diet, eggs, 8 days after infestation, read-out: effect in at least one of the two categories (mortality or growth inhibition)
Procedure: 24-well microtiter plates with artificial diet were treated with aqueous test solutions prepared from 10′000 ppm DMSO stock solutions by pipetting. After drying, Plutella eggs were pipetted through a plastic stencil onto a gel blotting paper and the plate was closed with it. The samples were assessed for mortality and growth inhibition in comparison to untreated samples 8 days after infestation. The following compounds gave an effect of at least 80% in at least one of the two categories (mortality or growth inhibition) at an application rate of 200 ppm: P2, P3, P4, P5, P6, P8, P13.

[7] = system: Euschistus heros; test: Activity against Euschistus heros (neotropical brown stink bug); details: 120 h, application rate 200 ppm, sprayed soybean leaves, N2 nymphs, 5 days after infestation, read-out: effect in at least one of the two categories (mortality or growth inhibition)
Procedure: Soybean leaves on agar in 24-well microtiter plates were sprayed with aqueous test solutions prepared from 10′000 ppm DMSO stock solutions. After drying the leaves were infested with N2 nymphs. The samples were assessed for mortality and growth inhibition in comparison to untreated samples 5 days after infestation.

[8] = system: Frankliniella occidentalis; test: Activity against Frankliniella occidentalis (western flower thrips); details: foliar, 168 h, application rate 200 ppm, sprayed sunflower leaf discs, mixed ages, 7 days after infestation
Procedure: Sunflower leaf discs were placed on agar in 24-well microtiter plates and sprayed with aqueous test solutions prepared from […] stock solutions. After drying the leaf discs were infested with a Frankliniella population of mixed ages. The samples were assessed for mortality 7 days after infestation.

[9] = system: Carpocapsa (Cydia) pomonella; test: Activity against Carpocapsa (Cydia) pomonella (codling moth); details: 336 h, application rate 12.5 ppm, sprayed diet cubes, L1 larvae, 14 days after infestation
Procedure: Diet cubes coated with paraffin were sprayed with diluted test solutions in an application chamber. After drying off the treated cubes (10 replicates) were infested with 1 L1 larvae. Samples were incubated at 26-27° C. and checked 14 days after infestation for mortality and growth inhibition.

CCS(=O)(=O)c1cccnc1-c1cc2ccc(=O)n(CC(F)(F)C(F)(F)F)c2cn1 [P2, 6-(3-ethylsulfonyl-2-pyridyl)-1-(2,2,3,3,3-pentafluoropropyl)-1,7-naphthyridin-2-one]
≥ 80%: percent effect (mortality or growth inhibition) at 200 ppm [1] | percent control (mortality, anti-feedant effect or growth inhibition) at 200 ppm [2] | mortality at 24 ppm [3] | percent control (mortality, anti-feedant effect or growth inhibition) at 200 ppm [4] | mortality at 200 ppm [5] | percent effect (mortality or growth inhibition) at 200 ppm [6] | percent effect (mortality or growth inhibition) at 200 ppm [7]

CCS(=O)(=O)c1cc(C2(C#N)CC2)cnc1-c1cc2ccc(=O)n(CC(F)(F)C(F)(F)F)c2cn1 [P3, 1-[5-ethylsulfonyl-6-[2-oxo-1-(2,2,3,3,3-pentafluoropropyl)-1,7-naphthyridin-6-yl]-3-pyridyl]cyclopropanecarbonitrile]
≥ 80%: percent effect (mortality or growth inhibition) at 200 ppm [1] | mortality at 200 ppm [8] | percent control (mortality, anti-feedant effect or growth inhibition) at 200 ppm [2] | mortality at 24 ppm [3] | percent control (mortality, anti-feedant effect or growth inhibition) at 200 ppm [4] | mortality at 200 ppm [5] | mortality at 12.5 ppm [9] | percent effect (mortality or growth inhibition) at 200 ppm [6] | percent effect (mortality or growth inhibition) at 200 ppm [7]

CCS(=O)(=O)c1ccc(-n2cncn2)nc1-c1cc2ccc(=O)n(CC(F)(F)C(F)(F)F)c2cn1 [P4, 6-[3-ethylsulfonyl-6-(1,2,4-triazol-1-yl)-2-pyridyl]-1-(2,2,3,3,3-pentafluoropropyl)-1,7-naphthyridin-2-one]
≥ 80%: percent control (mortality, anti-feedant effect or growth inhibition) at 200 ppm [2] | percent control (mortality, anti-feedant effect or growth inhibition) at 200 ppm [4] | mortality at 12.5 ppm [9] | percent effect (mortality or growth inhibition) at 200 ppm [6]

CCS(=O)(=O)c1ccc(C2CC2)nc1-c1cc2ccc(=O)n(CC(F)(F)C(F)(F)F)c2cn1 [P5, 6-(6-cyclopropyl-3-ethylsulfonyl-2-pyridyl)-1-(2,2,3,3,3-pentafluoropropyl)-1,7-naphthyridin-2-one]
≥ 80%: percent effect (mortality or growth inhibition) at 200 ppm [1] | percent control (mortality, anti-feedant effect or growth inhibition) at 200 ppm [2] | percent control (mortality, anti-feedant effect or growth inhibition) at 200 ppm [4] | mortality at 200 ppm [5] | percent effect (mortality or growth inhibition) at 200 ppm [6]

CCS(=O)(=O)c1cc(C(C)(C)C#N)cnc1-c1cc2ccc(=O)n(CC(F)(F)C(F)(F)F)c2cn1 [P6, 2-[5-ethylsulfonyl-6-[2-oxo-1-(2,2,3,3,3-pentafluoropropyl)-1,7-naphthyridin-6-yl]-3-pyridyl]-2-methyl-propanenitrile]
≥ 80%: percent effect (mortality or growth inhibition) at 200 ppm [1] | percent control (mortality, anti-feedant effect or growth inhibition) at 200 ppm [2] | percent control (mortality, anti-feedant effect or growth inhibition) at 200 ppm [4] | mortality at 12.5 ppm [9] | percent effect (mortality or growth inhibition) at 200 ppm [6] | percent effect (mortality or growth inhibition) at 200 ppm [7]

CCS(=O)(=O)c1cc(N(C)C(C)=O)cnc1-c1cc2ccc(=O)n(CC(F)(F)C(F)(F)F)c2cn1 [P7, N-[5-ethylsulfonyl-6-[2-oxo-1-(2,2,3,3,3-pentafluoropropyl)-1,7-naphthyridin-6-yl]-3-pyridyl]-N-methyl-acetamide]
≥ 80%: percent effect (mortality or growth inhibition) at 200 ppm [1] | percent control (mortality, anti-feedant effect or growth inhibition) at 200 ppm [2] | mortality at 24 ppm [3] | percent control (mortality, anti-feedant effect or growth inhibition) at 200 ppm [4] | mortality at 200 ppm [5]

CCS(=O)(=O)c1cc(-n2ccc(Cl)n2)cnc1-c1cc2ccc(=O)n(CC(F)(F)C(F)(F)F)c2cn1 [P8, 6-[5-(3-chloropyrazol-1-yl)-3-ethylsulfonyl-2-pyridyl]-1-(2,2,3,3,3-pentafluoropropyl)-1,7-naphthyridin-2-one]
≥ 80%: percent effect (mortality or growth inhibition) at 200 ppm [1] | percent control (mortality, anti-feedant effect or growth inhibition) at 200 ppm [2] | percent control (mortality, anti-feedant effect or growth inhibition) at 200 ppm [4] | percent effect (mortality or growth inhibition) at 200 ppm [6] | percent effect (mortality or growth inhibition) at 200 ppm [7]

CCS(=O)(=O)c1cc(Oc2ccccn2)cnc1-c1cc2ccc(=O)n(CC(F)(F)C(F)(F)F)c2cn1 [P9, 6-[3-ethylsulfonyl-5-(2-pyridyloxy)-2-pyridyl]-1-(2,2,3,3,3-pentafluoropropyl)-1,7-naphthyridin-2-one]
≥ 80%: percent effect (mortality or growth inhibition) at 200 ppm [1] | percent control (mortality, anti-feedant effect or growth inhibition) at 200 ppm [2] | percent control (mortality, anti-feedant effect or growth inhibition) at 200 ppm [4] | percent effect (mortality or growth inhibition) at 200 ppm [7]

CCS(=O)(=O)c1cc(C2(C#N)CC2)cnc1-c1cc2ccc(=O)n(CC(F)(F)F)c2cn1 [P10, 1-[5-ethylsulfonyl-6-[2-oxo-1-(2,2,2-trifluoroethyl)-1,7-naphthyridin-6-yl]-3-pyridyl]cyclopropanecarbonitrile]
≥ 80%: percent effect (mortality or growth inhibition) at 200 ppm [1] | percent control (mortality, anti-feedant effect or growth inhibition) at 200 ppm [2] | percent control (mortality, anti-feedant effect or growth inhibition) at 200 ppm [4] | mortality at 200 ppm [5] | percent effect (mortality or growth inhibition) at 200 ppm [7]

CCS(=O)(=O)c1ccc(-n2nccn2)nc1-c1cc2ccc(=O)n(CC(F)(F)C(F)(F)F)c2cn1 [P11, 6-[3-ethylsulfonyl-6-(triazol-2-yl)-2-pyridyl]-1-(2,2,3,3,3-pentafluoropropyl)-1,7-naphthyridin-2-one]
≥ 80%: percent effect (mortality or growth inhibition) at 200 ppm [1] | percent control (mortality, anti-feedant effect or growth inhibition) at 200 ppm [2] | percent control (mortality, anti-feedant effect or growth inhibition) at 200 ppm [4]

CCS(=O)(=O)c1ccc(-n2ccnn2)nc1-c1cc2ccc(=O)n(CC(F)(F)C(F)(F)F)c2cn1 [P12, 6-[3-ethylsulfonyl-6-(triazol-1-yl)-2-pyridyl]-1-(2,2,3,3,3-pentafluoropropyl)-1,7-naphthyridin-2-one]
≥ 80%: percent effect (mortality or growth inhibition) at 200 ppm [1] | percent control (mortality, anti-feedant effect or growth inhibition) at 200 ppm [2] | percent control (mortality, anti-feedant effect or growth inhibition) at 200 ppm [4]

CCSc1cc(C2(C#N)CC2)cnc1-c1cc2ccc(=O)n(CC(F)(F)C(F)(F)F)c2cn1 [P13, 1-[5-ethylsulfanyl-6-[2-oxo-1-(2,2,3,3,3-pentafluoropropyl)-1,7-naphthyridin-6-yl]-3-pyridyl]cyclopropanecarbonitrile]
≥ 80%: percent effect (mortality or growth inhibition) at 200 ppm [1] | percent control (mortality, anti-feedant effect or growth inhibition) at 200 ppm [2] | percent control (mortality, anti-feedant effect or growth inhibition) at 200 ppm [4] | percent effect (mortality or growth inhibition) at 200 ppm [6]

CCSc1cc(-n2ccc(Cl)n2)cnc1-c1cc2ccc(=O)n(CC(F)(F)C(F)(F)F)c2cn1 [P14, 6-[5-(3-chloropyrazol-1-yl)-3-ethylsulfanyl-2-pyridyl]-1-(2,2,3,3,3-pentafluoropropyl)-1,7-naphthyridin-2-one]
≥ 80%: percent control (mortality, anti-feedant effect or growth inhibition) at 200 ppm [2]

CCSc1cc(C2(C#N)CC2)cnc1-c1cc2ccc(=O)n(CC(F)(F)F)c2cn1 [P15, 1-[5-ethylsulfanyl-6-[2-oxo-1-(2,2,2-trifluoroethyl)-1,7-naphthyridin-6-yl]-3-pyridyl]cyclopropanecarbonitrile]
≥ 80%: percent effect (mortality or growth inhibition) at 200 ppm [1] | percent control (mortality, anti-feedant effect or growth inhibition) at 200 ppm [2] | percent control (mortality, anti-feedant effect or growth inhibition) at 200 ppm [4]
